PubChem BioAssay AID328 (DTP/NCI, 2004)
Where “and” joins values, the source holds several entries; their conditions need not be identical. Equal entries are not always repeated. Toxic doses and inconclusive results are not listed.

Tested on: BDF1 mice, P388 leukemia ip, median survival T/C
Test: NCI In Vivo Anticancer Drug Screen. Data for tumor model P388 Leukemia (intraperitoneal) in B6D2F1 (BDF1) mice
Conditions: endpoint: median survival time, higher = longer survival
Outline: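 Transplantable tumour in mice; compound vs vehicle dosing; survival scored; ratio of treated to control reported.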

[1] = dose: 25.0 mg/kg/injection, schedule: Q01DX009 (ip), vehicle: saline with Tween-80
[2] = dose: 50.0 mg/kg/injection, schedule: Q01DX009 (ip), vehicle: saline with Tween-80
[3] = dose: 100.0 mg/kg/injection, schedule: Q01DX009 (ip), vehicle: saline with Tween-80
[4] = dose: 50.0 mg/kg/injection, schedule: Q04DX003 (ip), vehicle: saline with Tween-80
[5] = dose: 100.0 mg/kg/injection, schedule: Q04DX003 (ip), vehicle: saline with Tween-80
[6] = dose: 200.0 mg/kg/injection, schedule: Q04DX003 (ip), vehicle: saline with Tween-80
[7] = dose: 25.0 mg/kg/injection, schedule: Q04DX003 (ip), vehicle: saline
[8] = dose: 50.0 mg/kg/injection, schedule: Q04DX003 (ip), vehicle: saline
[9] = dose: 200.0 mg/kg/injection, schedule: Q01DX009 (ip), vehicle: saline with Tween-80
[10] = dose: 400.0 mg/kg/injection, schedule: Q04DX003 (ip), vehicle: saline with Tween-80
[11] = dose: 100.0 mg/kg/injection, schedule: Q04DX003 (ip), vehicle: Klucel (hydroxypropylcellulose) (HPC)

For `CC(=O)O.[Pb]`, the T/C (dose: 12.5 mg/kg/injection, schedule: Q01DX009 (ip), vehicle: Klucel (hydroxypropylcellulose) (HPC)) was 109 % of control, the T/C (dose: 25.0 mg/kg/injection, schedule: Q01DX009 (ip), vehicle: Klucel (hydroxypropylcellulose) (HPC)) was 109 % of control and the T/C [1] was 90 % of control. For the same molecule, the T/C [2] was 90 % of control.
In the case of `CN(C)CCCN1c2ccc(O)cc2Sc2ccc(Cl)cc21`, the T/C (dose: 3.1 mg/kg/injection, schedule: Q01DX009 (ip), vehicle: other) is reported as 90 % of control, the T/C (dose: 6.2 mg/kg/injection, schedule: Q01DX009 (ip), vehicle: other) is reported as 90 % of control and the T/C (dose: 12.5 mg/kg/injection, schedule: Q01DX009 (ip), vehicle: other) is reported as 104 % of control. For the same molecule, the T/C (dose: 25.0 mg/kg/injection, schedule: Q01DX009 (ip), vehicle: other) was 109 % of control, the T/C [1] was 91 % of control and the T/C [2] was 91 % of control. The T/C [3] was 100 % of control.
`CC(C)=C(CO)CCC(C)C` was tested, and the T/C [4] was 109 % of control, the T/C [5] was 122 % of control and the T/C [6] was 118 % of control.
`CC1(C)CN(C(C)(C)C)CC(C)(C)C(=O)C1=O` was tested, and the T/C (dose: 12.5 mg/kg/injection, schedule: Q04DX003 (ip), vehicle: saline) was 90 % of control, the T/C [7] was 95 % of control and the T/C [8] was 95 % of control.
With `Cc1cc(-c2ccc(NC(=O)c3cccc([N+](=O)[O-])c3)c(C)c2)ccc1NC(=O)c1cccc([N+](=O)[O-])c1` the T/C (dose: 50.0 mg/kg/injection, schedule: Q01DX005 (ip), vehicle: saline with Tween-80) was 96 % of control, the T/C (dose: 100.0 mg/kg/injection, schedule: Q01DX005 (ip), vehicle: saline with Tween-80) was 94 % of control and the T/C (dose: 200.0 mg/kg/injection, schedule: Q01DX005 (ip), vehicle: saline with Tween-80) was 105 % of control.
`CCN(CC)Cc1cc(Nc2ccnc3cc(Cl)ccc23)cc(-c2ccc(Cl)cc2)c1O` was tested, and the T/C [2] was 110 % of control, the T/C [3] was 102 % of control and the T/C [9] was 102 % of control.
In the case of `CCCCN(CCCC)P(=O)(N1CC1)N1CC1`, the T/C (dose: 16.5 mg/kg/injection, schedule: Q01DX009 (ip), vehicle: saline) is reported as 250 % of control, the T/C (dose: 25.0 mg/kg/injection, schedule: Q01DX009 (ip), vehicle: saline) is reported as 118 % of control and the T/C (dose: 37.5 mg/kg/injection, schedule: Q01DX009 (ip), vehicle: saline) is reported as 113 % of control.
With `COC12C(COC(N)=O)C3=C(C(=O)C(C)=C(N)C3=O)N1CC1C2N1C` (stereo not given) the T/C (dose: 2.0 mg/kg/injection, schedule: Q01DX009 (ip), vehicle: saline) was 163 % of control, the T/C (dose: 2.0 mg/kg/injection, schedule: Q01DX010 (ip), vehicle: saline) was 175 % of control and the T/C (dose: 4.0 mg/kg/injection, schedule: Q01DX009 (ip), vehicle: saline) was 179 % of control. For the same molecule, the T/C (dose: 4.0 mg/kg/injection, schedule: Q01DX010 (ip), vehicle: saline) was 190 % of control, the T/C (dose: 8.0 mg/kg/injection, schedule: Q01DX009 (ip), vehicle: saline) was 198 % of control and the T/C (dose: 8.0 mg/kg/injection, schedule: Q01DX010 (ip), vehicle: saline) was 240 % of control. The T/C (dose: 16.0 mg/kg/injection, schedule: Q01DX009 (ip), vehicle: saline) was 88 % of control and the T/C (dose: 16.0 mg/kg/injection, schedule: Q01DX010 (ip), vehicle: saline) was 110 % of control.
For `ClCCn1cnc2c(SCc3ccccc3)ncnc21`, the T/C [5] was 100 % of control, the T/C [6] was 100 % of control and the T/C [10] was 100 % of control.
With `O=CN(O)CC(=O)O.[Cu]` the T/C (dose: 1.16 mg/kg/injection, schedule: Q04DX003 (ip), vehicle: saline) was 95 % of control, the T/C (dose: 1.77 mg/kg/injection, schedule: Q04DX003 (ip), vehicle: saline) was 95 % of control and the T/C (dose: 2.65 mg/kg/injection, schedule: Q04DX003 (ip), vehicle: saline) was 90 % of control. The T/C (dose: 3.9 mg/kg/injection, schedule: Q04DX003 (ip), vehicle: saline) was 90 % of control, the T/C (dose: 6.0 mg/kg/injection, schedule: Q04DX003 (ip), vehicle: saline) was 100 % of control and the T/C (dose: 9.0 mg/kg/injection, schedule: Q04DX003 (ip), vehicle: saline) was 113 % of control. The T/C (dose: 10.0 mg/kg/injection, schedule: Q01DX001 (ip), vehicle: saline) was 100 % of control, the T/C (dose: 13.0 mg/kg/injection, schedule: Q04DX003 (ip), vehicle: saline) was 104 % of control and the T/C (dose: 20.0 mg/kg/injection, schedule: Q01DX001 (ip), vehicle: saline) was 118 % of control.
For `Cc1cccc(C)c1NC(=S)N1CCC(CCCC2CCN(C(=S)Nc3c(C)cccc3C)CC2)CC1`, the T/C [2] was 86 % of control, the T/C [3] was 90 % of control and the T/C [9] was 104 % of control.
`COC(=O)C/C(=C\c1ccc(OC)c(OC)c1)C(=O)OC` was tested, and the T/C (dose: 100.0 mg/kg/injection, schedule: Q01DX009 (ip), vehicle: Klucel (hydroxypropylcellulose) (HPC)) was 109 % of control, the T/C [11] was 104 % of control and the T/C (dose: 200.0 mg/kg/injection, schedule: Q01DX009 (ip), vehicle: Klucel (hydroxypropylcellulose) (HPC)) was 113 % of control. The T/C (dose: 200.0 mg/kg/injection, schedule: Q04DX003 (ip), vehicle: Klucel (hydroxypropylcellulose) (HPC)) was 100 % of control, the T/C (dose: 400.0 mg/kg/injection, schedule: Q01DX009 (ip), vehicle: Klucel (hydroxypropylcellulose) (HPC)) was 100 % of control and the T/C (dose: 400.0 mg/kg/injection, schedule: Q04DX003 (ip), vehicle: Klucel (hydroxypropylcellulose) (HPC)) was 100 % of control.
In the case of `Nc1ccccc1SC1CC(=O)N(c2ccc(I)cc2)C1=O` (stereo not given), the T/C (dose: 12.5 mg/kg/injection, schedule: Q04DX003 (ip), vehicle: Klucel (hydroxypropylcellulose) (HPC)) is reported as 95 % of control, the T/C (dose: 25.0 mg/kg/injection, schedule: Q01DX001 (ip), vehicle: Klucel (hydroxypropylcellulose) (HPC)) is reported as 108 % of control and the T/C (dose: 25.0 mg/kg/injection, schedule: Q04DX003 (ip), vehicle: Klucel (hydroxypropylcellulose) (HPC)) is reported as 95 % of control. The T/C (dose: 50.0 mg/kg/injection, schedule: Q01DX001 (ip), vehicle: Klucel (hydroxypropylcellulose) (HPC)) was 104 % of control, the T/C (dose: 50.0 mg/kg/injection, schedule: Q04DX003 (ip), vehicle: Klucel (hydroxypropylcellulose) (HPC)) was 100 % of control and the T/C (dose: 100.0 mg/kg/injection, schedule: Q01DX001 (ip), vehicle: Klucel (hydroxypropylcellulose) (HPC)) was 108 % of control. For the same molecule, the T/C [11] was 112 % of control.
`CCOC(=O)C(OCc1ccccc1)(C(=O)OCC)C(C)C` was tested, and the T/C [7] was 115 % of control, the T/C [8] was 100 % of control and the T/C (dose: 100.0 mg/kg/injection, schedule: Q04DX003 (ip), vehicle: saline) was 105 % of control.
For `NC(=O)C1(c2ccccc2)CCN(Cc2ccccc2)CC1`, the T/C [2] was 96 % of control, the T/C [4] was 100 % of control and the T/C [3] was 111 % of control. For the same molecule, the T/C [5] was 90 % of control.
In the case of `c1ccc(C(=NCCN=C(c2ccccc2)c2ccccc2)c2ccccc2)cc1`, the T/C [3] is reported as 87 % of control, the T/C [5] is reported as 100 % of control and the T/C [9] is reported as 104 % of control. For the same molecule, the T/C [6] was 91 % of control, the T/C (dose: 400.0 mg/kg/injection, schedule: Q01DX009 (ip), vehicle: saline with Tween-80) was 112 % of control and the T/C [10] was 95 % of control.
With `Cc1ncc([N+](=O)[O-])n1CCOc1c(Br)cc(Br)cc1CN(C)C1CCCCC1` the T/C [5] was 100 % of control, the T/C [6] was 105 % of control and the T/C [10] was 115 % of control.
`CCOC(=O)N=C=O` was tested, and the T/C (dose: 100.0 mg/kg/injection, schedule: Q01DX009 (ip), vehicle: water) was 114 % of control, the T/C (dose: 100.0 mg/kg/injection, schedule: Q04DX003 (ip), vehicle: water) was 96 % of control and the T/C (dose: 200.0 mg/kg/injection, schedule: Q01DX009 (ip), vehicle: water) was 110 % of control. The T/C (dose: 200.0 mg/kg/injection, schedule: Q04DX003 (ip), vehicle: water) was 99 % of control and the T/C (dose: 400.0 mg/kg/injection, schedule: Q04DX003 (ip), vehicle: water) was 107 % of control.
For `O=C(C(=O)c1ccc(Cl)cc1)c1ccc(Cl)cc1`, the T/C (dose: 12.5 mg/kg/injection, schedule: Q04DX003 (ip), vehicle: other) was 100 % of control and the T/C (dose: 25.0 mg/kg/injection, schedule: Q04DX003 (ip), vehicle: other) was 86 % of control.
With `O=S(=O)(O)N(O)c1ccccc1` the T/C (dose: 25.0 mg/kg/injection, schedule: Q01DX001 (ip), vehicle: saline with Tween-80) was 105 % of control, the T/C (dose: 50.0 mg/kg/injection, schedule: Q01DX001 (ip), vehicle: saline with Tween-80) was 102 % of control and the T/C (dose: 100.0 mg/kg/injection, schedule: Q01DX001 (ip), vehicle: saline with Tween-80) was 100 % of control. For the same molecule, the T/C (dose: 200.0 mg/kg/injection, schedule: Q01DX001 (ip), vehicle: saline with Tween-80) was 99 % of control and 105 % of control and the T/C (dose: 400.0 mg/kg/injection, schedule: Q01DX001 (ip), vehicle: saline with Tween-80) was 101 % of control.
